ChEMBL document CHEMBL3244122, “Symbiotic approach to drug design: antihypertensive beta-adrenergic blocking agents” (J Med Chem, 1979)

Tests used:
Rattus norvegicus [1] = assay: Antihypertensive activity in spontaneously hypertensive Wistar-Okamoto rat assessed as maximal fall in mean arterial pressure at 20 mg/kg, ip; type: functional, Artery; conditions: route intraperitoneal
Rattus norvegicus [2] = assay: Antihypertensive activity in spontaneously hypertensive Wistar-Okamoto rat assessed as duration of action at 20 mg/kg, po; type: functional
Canis familiaris [3] = assay: Vasodilatory activity in anesthetized dog assessed as increase in iliac blood flow […] ia; type: functional, Canis lupus familiaris, Artery
Canis familiaris [4] = assay: Vasodilatory activity in anesthetized dog assessed as increase in iliac blood flow […] measured after 800 ug/kg, iv beta-adrenergic receptor blocker timolol administration; type: functional, Canis lupus familiaris, Artery
Canis familiaris [5] = assay: In vivo beta-adrenergic receptor blockade in iv dosed anesthetized dog assessed as inhibition of isoproterenol-induced hypotension; type: functional; conditions: Canis lupus familiaris
Canis familiaris [6] = assay: In vivo beta-adrenergic receptor blockade in iv dosed anesthetized dog assessed as inhibition of isoproterenol-induced tachycardia; type: functional; conditions: Canis lupus familiaris
Rattus norvegicus [7] = assay: Antihypertensive activity in spontaneously hypertensive Wistar-Okamoto rat assessed as duration of action at 1.25 mg/kg, po; type: functional
Rattus norvegicus [8] = assay: Antihypertensive activity in spontaneously hypertensive Wistar-Okamoto rat assessed as duration of action at 5 mg/kg, po; type: functional
Rattus norvegicus [9] = assay: Antihypertensive activity in spontaneously hypertensive Wistar-Okamoto rat assessed as duration of action at 0.312 mg/kg, po; type: functional
Canis familiaris [10] = assay: Vasodilatory activity in anesthetized dog assessed as increase in iliac blood flow […] measured after 2000 ug/kg, iv beta-adrenergic receptor blocker timolol administration; type: functional, Canis lupus familiaris, Artery
Rattus norvegicus [11] = assay: Antihypertensive activity in spontaneously hypertensive Wistar-Okamoto rat assessed as maximal fall in mean arterial pressure at 1.25 mg/kg, po; type: functional, Artery
Rattus norvegicus [12] = assay: Antihypertensive activity in spontaneously hypertensive Wistar-Okamoto rat assessed as maximal fall in mean arterial pressure at 5 mg/kg, po; type: functional, Artery
Rattus norvegicus [13] = assay: Antihypertensive activity in spontaneously hypertensive Wistar-Okamoto rat assessed as maximal fall in mean arterial pressure at 0.312 mg/kg, po; type: functional, Artery
Rattus norvegicus [14] = assay: Antihypertensive activity in spontaneously hypertensive Wistar-Okamoto rat assessed as duration of action at 20 mg/kg, ip; type: functional; conditions: route intraperitoneal
Canis familiaris [15] = assay: Vasodilatory activity in anesthetized dog assessed as increase in iliac blood flow […] measured after 320 ug/kg, iv beta-adrenergic receptor blocker timolol administration; type: functional, Canis lupus familiaris, Artery
Rattus norvegicus [16] = assay: Antihypertensive activity in spontaneously hypertensive Wistar-Okamoto rat assessed as maximal fall in mean arterial pressure at 20 mg/kg, po; type: functional, Artery
Rattus norvegicus [17] = assay: Antihypertensive activity in spontaneously hypertensive Wistar-Okamoto rat assessed as maximal fall in mean arterial pressure at 0.625 mg/kg, po; type: functional, Artery
Rattus norvegicus [18] = assay: Antihypertensive activity in spontaneously hypertensive Wistar-Okamoto rat assessed as duration of action at 1 mg/kg, po; type: functional
Rattus norvegicus [19] = assay: Antihypertensive activity in spontaneously hypertensive Wistar-Okamoto rat assessed as duration of action at 2 mg/kg, po; type: functional
Rattus norvegicus [20] = assay: Antihypertensive activity in spontaneously hypertensive Wistar-Okamoto rat assessed as duration of action at 8 mg/kg, po; type: functional
Canis familiaris [21] = assay: Vasodilatory activity in anesthetized dog assessed as increase in iliac blood flow at 800 mg, ia; type: functional, Canis lupus familiaris, Artery
Canis familiaris [22] = assay: Vasodilatory activity in anesthetized dog assessed as increase in iliac blood flow at 800 mg, ia measured after 320 ug/kg, iv beta-adrenergic receptor blocker timolol administration; type: functional, Canis lupus familiaris, Artery
Canis familiaris [23] = assay: Vasodilatory activity in anesthetized dog assessed as increase in iliac blood flow at 800 mg, ia measured after 800 ug/kg, iv beta-adrenergic receptor blocker timolol administration; type: functional, Canis lupus familiaris, Artery
Rattus norvegicus [24] = assay: Antihypertensive activity in spontaneously hypertensive Wistar-Okamoto rat assessed as maximal fall in mean arterial pressure at 1 mg/kg, po; type: functional, Artery
Rattus norvegicus [25] = assay: Antihypertensive activity in spontaneously hypertensive Wistar-Okamoto rat assessed as maximal fall in mean arterial pressure at 2 mg/kg, po; type: functional, Artery
Rattus norvegicus [26] = assay: Antihypertensive activity in spontaneously hypertensive Wistar-Okamoto rat assessed as maximal fall in mean arterial pressure at 8 mg/kg, po; type: functional, Artery
Rattus norvegicus [27] = assay: Antihypertensive activity in spontaneously hypertensive Wistar-Okamoto rat assessed as maximal fall in mean arterial pressure at 0.078 mg/kg, po; type: functional, Artery
Canis familiaris [28] = assay: Vasodilatory activity in anesthetized dog assessed as increase in iliac blood flow at 250 mg, ia measured after 800 ug/kg, iv beta-adrenergic receptor blocker timolol administration; type: functional, Canis lupus familiaris, Artery
Canis familiaris [29] = assay: Vasodilatory activity in anesthetized dog assessed as increase in iliac blood flow at 64 mg, ia measured after 800 ug/kg, iv beta-adrenergic receptor blocker timolol administration; type: functional, Canis lupus familiaris, Artery
Canis familiaris [30] = assay: Vasodilatory activity in anesthetized dog assessed as increase in iliac blood flow at 250 mg, ia measured after 2000 ug/kg, iv beta-adrenergic receptor blocker timolol administration; type: functional, Canis lupus familiaris, Artery
Canis familiaris [31] = assay: Vasodilatory activity in anesthetized dog assessed as increase in iliac blood flow at 64 mg, ia measured after 2000 ug/kg, iv beta-adrenergic receptor blocker timolol administration; type: functional, Canis lupus familiaris, Artery

| SMILES | Time (Rattus norvegicus [2]) [h] | Activity (Canis familiaris [3]) [mL/min] | ED50 (Canis familiaris [5]) [mg/kg] | ED50 (Canis familiaris [6]) [mg/kg] | Time (Rattus norvegicus [8]) [h] | Activity (Canis familiaris [10]) [mL/min] | Activity (Rattus norvegicus [11]) [mmHg] | Activity (Rattus norvegicus [12]) [mmHg] | Activity (Rattus norvegicus [16]) [mmHg] | also measured |
| --- | --- | --- | --- | --- | --- | --- | --- | --- | --- | --- |
| CC(C)(C)NCC(O)COc1ccc(-c2ncc(C(F)(F)F)[nH]2)cn1 (centres undefined) | >7 | 103 | 0.058 | 0.0025 | – | – | – | – | – | Activity (Rattus norvegicus [1]): 40 mmHg; Activity (Canis familiaris [4]): 38 mL/min |
| CC(C)(C)NCC(O)COc1ccc(-c2nc(C(F)(F)F)c[nH]2)cc1 (centres undefined) | – | 79 | 0.036 | 0.009 | 18 | 15 | 36 | 49 | – | Time (Rattus norvegicus [7]): 18 h; Time (Rattus norvegicus [9]): 7 h; Activity (Rattus norvegicus [13]): 21 mmHg |
| CN(C)CCOc1ncccc1C#N | – | 100 | – | – | – | 72 | – | – | – | Activity (Rattus norvegicus [1]): 49 mmHg; Time (Rattus norvegicus [14]): 1 h |
| Cc1c[nH]c(-c2ccc(OCC(O)CNC(C)(C)C)cc2)n1 (centres undefined) | 8 | 60 | – | – | <8 | – | 24 | 19 | 41 | Time (Rattus norvegicus [7]): <6 h; Activity (Canis familiaris [15]): 33 mL/min |
| CC(C)(C)NCC(O)COc1ccc(-c2ncc[nH]2)cc1 (centres undefined) | – | 36 | – | – | – | – | – | – | – | Activity (Rattus norvegicus [1]): 33 mmHg; Time (Rattus norvegicus [14]): 1 h; Activity (Canis familiaris [15]): 31 mL/min |
| CC(C)(C)NC[C@H](O)COc1nsnc1N1CCOCC1 [TIMOLOL] | – | – | 0.0013 | 0.0024 | – | – | -1 | – | – | Time (Rattus norvegicus [9]): 8 h; Activity (Rattus norvegicus [13]): 32 mmHg; Activity (Rattus norvegicus [17]): 0 mmHg |
| CC(C)(C)NCC(O)COc1ncccc1S(C)(=O)=O (centres undefined) | – | 10 | – | – | – | – | – | 12 | 13 | Activity (Canis familiaris [4]): 8 mL/min |
| FC(F)(F)c1cnc(-c2cccnc2)[nH]1 | – | – | – | – | – | – | – | – | – | Time (Rattus norvegicus [18]): 2 h; Time (Rattus norvegicus [19]): 6 h; Time (Rattus norvegicus [20]): >6 h; Activity (Canis familiaris [21]): 93 mL/min; Activity (Canis familiaris [22]): 99 mL/min; Activity (Canis familiaris [23]): 76 mL/min; Activity (Rattus norvegicus [24]): 21 mmHg; Activity (Rattus norvegicus [25]): 39 mmHg; Activity (Rattus norvegicus [26]): 48 mmHg |
| CC(C)(C)NCC(O)COc1ccccn1 (centres undefined) | – | – | 0.07 | 0.01 | – | 30 | – | 10 | 33 | – |
| CC(C)(C)NC[C@H](O)COc1ncccc1C#N.Cl | – | 98 | 0.0052 | 0.0015 | – | 90 | 47 | – | – | Activity (Rattus norvegicus [27]): 19 mmHg; Time (Rattus norvegicus [7]): >12 h; Time (Rattus norvegicus [9]): 1 h; Activity (Canis familiaris [28]): 62 mL/min; Activity (Canis familiaris [29]): 38 mL/min; Activity (Rattus norvegicus [13]): 30 mmHg |
| CC(C)(C)NCC(O)COc1cc(C#N)ccn1 (centres undefined) | 4 | 35 | > 0.03 | 0.03 | 2 | – | 15 | 30 | 55 | Activity (Canis familiaris [4]): 18 mL/min |
| CC(C)(C)NC[C@H](O)COc1ccc(-c2ncc[nH]2)cc1 | – | – | > 1 | 0.067 | – | – | – | – | – | – |
| Cc1ccc(C#N)c(OCC(O)CNC(C)(C)C)n1 (centres undefined) | – | 70 | < 0.01 | < 0.01 | – | 43 | – | 5 | – | – |
| Cc1cnc(-c2ccc(OC[C@@H](O)CNC(C)(C)C)cc2)[nH]1 | – | – | > 1 | 0.03 | – | – | – | – | – | – |
| CC(C)(C)NCC(O)COc1ccc(C#N)cn1 (centres undefined) | – | -13 | – | – | – | 19 | – | – | 15 | Activity (Canis familiaris [4]): -1 mL/min |
| CC(C)NCC(O)COc1cccc2ccccc12 (centres undefined) [PROPRANOLOL] | 12 | – | 0.019 | 0.051 | <8 | – | 12 | 7 | 14 | Time (Rattus norvegicus [7]): 8 h |
| Cc1cc(C)c(C#N)c(OCC(O)CNC(C)(C)C)n1 (centres undefined) | 8 | 33 | 0.0026 | 0.0015 | – | 3 | – | 16 | 21 | – |
| Cc1cc(OCC(O)CNC(C)(C)C)cc(C)c1-c1ncc(C(F)(F)F)[nH]1 (centres undefined) | 18 | 7 | – | – | 4 | – | – | 19 | 30 | – |
| CC(C)(C)NCC(O)COc1ccc(-c2ncc(-c3ccccc3)[nH]2)cc1 (centres undefined) | >24 | 46 | 0.083 | 0.038 | 4 | 42 | 20 | 30 | 54 | – |
| NNc1nncc2ccccc12 [HYDRALAZINE] | – | 66 | – | – | – | – | – | – | – | Time (Rattus norvegicus [18]): 6 h; Time (Rattus norvegicus [19]): >7 h; Activity (Rattus norvegicus [24]): 30 mmHg; Activity (Rattus norvegicus [25]): 40 mmHg |
| CC(C)(C)NC[C@@H](O)COc1ncccc1C#N.Cl | 4 | – | 0.1 | 0.1 | 1 | 82 | 22 | 27 | 40 | Activity (Canis familiaris [30]): 22 mL/min; Activity (Canis familiaris [31]): 13 mL/min |
| CC(C)(C)NCC(O)COc1ncccc1C(F)(F)F (centres undefined) | 18 | 100 | < 0.001 | < 0.001 | – | 145 | 28 | – | 36 | Time (Rattus norvegicus [7]): 4 h; Activity (Canis familiaris [28]): 60 mL/min; Activity (Canis familiaris [29]): 41 mL/min; Activity (Rattus norvegicus [13]): 15 mmHg |
